Test [1] concerns the target T1, Tyrosine-protein kinase ITK/TSK (Homo sapiens, UniProt Q08881).
T1 sequence (Q08881 whole entry): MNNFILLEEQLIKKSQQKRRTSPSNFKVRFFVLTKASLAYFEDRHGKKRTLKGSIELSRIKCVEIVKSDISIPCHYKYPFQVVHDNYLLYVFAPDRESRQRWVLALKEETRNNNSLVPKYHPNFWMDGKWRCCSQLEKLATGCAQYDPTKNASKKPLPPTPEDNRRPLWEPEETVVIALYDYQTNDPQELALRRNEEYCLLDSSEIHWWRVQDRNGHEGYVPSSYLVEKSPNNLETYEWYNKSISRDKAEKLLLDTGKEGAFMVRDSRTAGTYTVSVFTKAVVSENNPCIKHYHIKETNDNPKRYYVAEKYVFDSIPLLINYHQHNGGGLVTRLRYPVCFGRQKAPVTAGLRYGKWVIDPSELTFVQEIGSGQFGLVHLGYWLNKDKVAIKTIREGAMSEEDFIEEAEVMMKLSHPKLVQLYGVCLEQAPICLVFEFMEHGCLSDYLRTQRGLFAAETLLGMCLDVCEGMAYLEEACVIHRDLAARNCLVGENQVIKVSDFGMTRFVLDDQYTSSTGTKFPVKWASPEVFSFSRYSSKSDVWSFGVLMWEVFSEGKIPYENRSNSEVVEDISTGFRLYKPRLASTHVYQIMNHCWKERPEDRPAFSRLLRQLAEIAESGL
Briefly: Inhibition of recombinant GST-tagged full-length ITK expressed in baculovirus expression system after 30 mins by scintillation proximity assay.

In test [2] the target is Mitogen-activated protein kinase 14 (Homo sapiens) (UniProt Q16539). Briefly: Inhibition of SAPK2a at 1 uM.
Mitogen-activated protein kinase 14 (Homo sapiens), sequence (Q16539 whole entry): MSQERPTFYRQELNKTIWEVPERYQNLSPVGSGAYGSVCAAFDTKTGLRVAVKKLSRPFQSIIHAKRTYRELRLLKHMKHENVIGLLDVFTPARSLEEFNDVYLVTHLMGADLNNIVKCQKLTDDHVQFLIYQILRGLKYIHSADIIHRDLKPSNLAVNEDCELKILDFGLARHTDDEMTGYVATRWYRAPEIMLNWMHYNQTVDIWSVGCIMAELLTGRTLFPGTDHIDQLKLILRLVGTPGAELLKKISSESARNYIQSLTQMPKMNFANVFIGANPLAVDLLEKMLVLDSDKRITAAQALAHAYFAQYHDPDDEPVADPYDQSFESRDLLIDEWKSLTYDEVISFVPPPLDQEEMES
Test [3] in a line: Inhibition of MAPK2 at 0.1 uM. Particulars: values are per cent of control.
The nature of test [4]: Inhibition of JNK2a2 at 0.1 uM. The settings on record: values are per cent of control.
The target of test [5] is High affinity nerve growth factor receptor (Homo sapiens) (UniProt P04629). Briefly: Inhibition of TrkA at 1 uM; values are per cent of control.
The target in test [6] is Tyrosine-protein kinase Lck (Homo sapiens) (UniProt P06239). Briefly: Inhibition of Lck at 0.1 uM; values are per cent of control.
Tyrosine-protein kinase Lck (Homo sapiens), sequence (P06239 2-509 limits assumed): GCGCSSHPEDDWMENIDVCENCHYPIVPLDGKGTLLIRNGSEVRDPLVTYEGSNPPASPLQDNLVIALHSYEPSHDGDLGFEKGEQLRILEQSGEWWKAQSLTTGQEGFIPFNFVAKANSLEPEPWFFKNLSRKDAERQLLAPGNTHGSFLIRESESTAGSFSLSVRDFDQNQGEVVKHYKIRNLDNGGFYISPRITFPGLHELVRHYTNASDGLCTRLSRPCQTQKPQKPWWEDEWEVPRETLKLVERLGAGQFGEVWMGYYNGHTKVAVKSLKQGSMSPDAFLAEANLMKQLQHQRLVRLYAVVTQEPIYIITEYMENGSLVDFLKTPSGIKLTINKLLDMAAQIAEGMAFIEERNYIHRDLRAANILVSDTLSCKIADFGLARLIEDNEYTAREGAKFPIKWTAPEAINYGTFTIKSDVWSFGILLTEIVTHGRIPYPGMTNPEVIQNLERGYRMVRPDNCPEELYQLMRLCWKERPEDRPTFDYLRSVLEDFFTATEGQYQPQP
The target in test [7] is RAF proto-oncogene serine/threonine-protein kinase (Homo sapiens) (UniProt P04049). Briefly: Inhibition of c-RAF at 1 uM; values are per cent of control.
RAF proto-oncogene serine/threonine-protein kinase (Homo sapiens), sequence (P04049 whole entry): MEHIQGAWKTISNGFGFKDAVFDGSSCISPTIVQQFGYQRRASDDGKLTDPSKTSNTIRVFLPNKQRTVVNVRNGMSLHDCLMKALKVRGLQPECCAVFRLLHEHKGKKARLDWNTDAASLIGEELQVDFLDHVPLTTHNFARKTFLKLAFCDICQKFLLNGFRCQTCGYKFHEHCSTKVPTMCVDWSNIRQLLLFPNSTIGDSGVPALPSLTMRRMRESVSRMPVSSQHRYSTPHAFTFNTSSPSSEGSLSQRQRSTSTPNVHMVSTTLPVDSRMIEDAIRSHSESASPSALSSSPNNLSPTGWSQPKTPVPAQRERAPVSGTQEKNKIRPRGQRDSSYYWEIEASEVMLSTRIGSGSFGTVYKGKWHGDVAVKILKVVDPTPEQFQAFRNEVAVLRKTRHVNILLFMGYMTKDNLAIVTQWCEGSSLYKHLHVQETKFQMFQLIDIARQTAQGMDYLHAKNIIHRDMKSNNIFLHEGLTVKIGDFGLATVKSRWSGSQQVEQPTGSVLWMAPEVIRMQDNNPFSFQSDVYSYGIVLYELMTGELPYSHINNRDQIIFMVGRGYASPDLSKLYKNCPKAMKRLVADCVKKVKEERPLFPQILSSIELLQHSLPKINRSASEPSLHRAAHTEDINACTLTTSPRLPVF
Test [8] deals with Ephrin type-A receptor 5 (Homo sapiens) (UniProt P54756). Briefly: Inhibition of EphA5 at 1 uM; values are per cent of control.
Ephrin type-A receptor 5 (Homo sapiens), sequence (P54756 whole entry): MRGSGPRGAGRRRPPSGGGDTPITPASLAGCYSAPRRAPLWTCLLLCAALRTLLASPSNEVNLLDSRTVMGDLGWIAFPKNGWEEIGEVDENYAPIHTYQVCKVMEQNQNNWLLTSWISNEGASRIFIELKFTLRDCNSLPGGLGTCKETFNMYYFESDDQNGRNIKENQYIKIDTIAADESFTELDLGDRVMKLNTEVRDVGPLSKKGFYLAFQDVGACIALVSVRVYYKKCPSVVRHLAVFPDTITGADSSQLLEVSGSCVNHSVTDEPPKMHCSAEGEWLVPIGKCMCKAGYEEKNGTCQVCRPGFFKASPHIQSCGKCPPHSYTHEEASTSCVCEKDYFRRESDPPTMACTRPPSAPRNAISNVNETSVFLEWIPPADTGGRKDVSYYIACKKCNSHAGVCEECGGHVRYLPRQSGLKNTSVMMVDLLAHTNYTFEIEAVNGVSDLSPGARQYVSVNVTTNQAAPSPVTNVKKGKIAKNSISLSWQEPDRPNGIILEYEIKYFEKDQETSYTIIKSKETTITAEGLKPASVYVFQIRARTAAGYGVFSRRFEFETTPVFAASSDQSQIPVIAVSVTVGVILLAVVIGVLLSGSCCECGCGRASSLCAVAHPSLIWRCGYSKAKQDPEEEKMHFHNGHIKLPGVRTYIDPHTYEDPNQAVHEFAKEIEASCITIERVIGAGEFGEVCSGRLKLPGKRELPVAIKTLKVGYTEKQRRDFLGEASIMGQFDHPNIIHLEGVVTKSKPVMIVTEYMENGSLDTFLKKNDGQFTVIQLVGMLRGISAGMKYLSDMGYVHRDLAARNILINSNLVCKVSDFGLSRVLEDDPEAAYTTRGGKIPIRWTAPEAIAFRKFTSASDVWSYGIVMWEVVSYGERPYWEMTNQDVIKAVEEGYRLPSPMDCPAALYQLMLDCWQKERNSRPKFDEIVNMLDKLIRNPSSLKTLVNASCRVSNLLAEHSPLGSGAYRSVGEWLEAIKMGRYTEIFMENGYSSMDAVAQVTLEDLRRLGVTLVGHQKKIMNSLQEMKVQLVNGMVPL
The target of test [9] is Fibroblast growth factor receptor 4 (Homo sapiens) (UniProt P22455). As to the kind of experiment: Inhibition of FGFR4 at 1 uM; values are per cent of control.
Fibroblast growth factor receptor 4 (Homo sapiens), sequence (P22455 22-802 limits assumed): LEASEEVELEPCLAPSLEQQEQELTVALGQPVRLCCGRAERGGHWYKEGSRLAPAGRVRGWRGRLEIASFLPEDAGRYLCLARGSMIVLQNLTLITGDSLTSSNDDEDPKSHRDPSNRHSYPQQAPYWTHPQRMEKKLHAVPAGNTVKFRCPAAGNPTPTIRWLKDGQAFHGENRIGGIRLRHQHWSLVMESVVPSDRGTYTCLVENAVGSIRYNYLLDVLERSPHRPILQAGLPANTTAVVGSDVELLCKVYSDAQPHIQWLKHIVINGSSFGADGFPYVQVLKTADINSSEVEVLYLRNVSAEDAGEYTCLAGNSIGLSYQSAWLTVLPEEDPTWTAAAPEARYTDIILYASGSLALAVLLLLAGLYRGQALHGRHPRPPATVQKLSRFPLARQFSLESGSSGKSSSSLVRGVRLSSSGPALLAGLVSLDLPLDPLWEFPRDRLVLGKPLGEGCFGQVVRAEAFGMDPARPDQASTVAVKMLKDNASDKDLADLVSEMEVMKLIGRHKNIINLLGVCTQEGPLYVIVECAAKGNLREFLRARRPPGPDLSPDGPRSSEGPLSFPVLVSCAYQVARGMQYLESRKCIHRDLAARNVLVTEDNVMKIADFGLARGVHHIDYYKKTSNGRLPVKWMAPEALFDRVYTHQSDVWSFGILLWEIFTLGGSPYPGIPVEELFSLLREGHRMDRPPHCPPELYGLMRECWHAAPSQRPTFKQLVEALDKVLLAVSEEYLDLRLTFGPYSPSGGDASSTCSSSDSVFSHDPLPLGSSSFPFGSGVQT
Test [10] has as its target Serine/threonine-protein kinase MARK1 (Homo sapiens) (UniProt Q9P0L2). Briefly: Inhibition of MARK1 at 1 uM; values are per cent of control.
In test [11] the target is T2, Serine/threonine-protein kinase Chk1 (Homo sapiens) (UniProt O14757).
T2 sequence (whole entry): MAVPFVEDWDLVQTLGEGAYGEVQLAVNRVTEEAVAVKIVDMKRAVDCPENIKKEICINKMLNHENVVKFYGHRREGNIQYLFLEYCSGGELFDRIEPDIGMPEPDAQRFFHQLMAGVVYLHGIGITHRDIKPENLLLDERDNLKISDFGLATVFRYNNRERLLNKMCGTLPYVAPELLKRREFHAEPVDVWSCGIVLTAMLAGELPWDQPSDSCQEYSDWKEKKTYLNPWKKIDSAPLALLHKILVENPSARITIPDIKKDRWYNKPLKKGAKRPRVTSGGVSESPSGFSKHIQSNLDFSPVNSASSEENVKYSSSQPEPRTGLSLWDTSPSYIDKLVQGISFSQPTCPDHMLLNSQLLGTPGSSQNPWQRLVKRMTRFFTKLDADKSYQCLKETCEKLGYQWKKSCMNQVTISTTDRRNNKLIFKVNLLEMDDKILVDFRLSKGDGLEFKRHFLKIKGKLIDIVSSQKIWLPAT
Briefly: Inhibition of CHK1 at 0.1 uM; values are per cent of control.

The target in test [12] is Mitogen-activated protein kinase 10 (Homo sapiens) (UniProt P53779). Briefly: Inhibition of JNK3 at 0.1 uM; values are per cent of control.
Mitogen-activated protein kinase 10 (Homo sapiens), sequence (P53779 whole entry): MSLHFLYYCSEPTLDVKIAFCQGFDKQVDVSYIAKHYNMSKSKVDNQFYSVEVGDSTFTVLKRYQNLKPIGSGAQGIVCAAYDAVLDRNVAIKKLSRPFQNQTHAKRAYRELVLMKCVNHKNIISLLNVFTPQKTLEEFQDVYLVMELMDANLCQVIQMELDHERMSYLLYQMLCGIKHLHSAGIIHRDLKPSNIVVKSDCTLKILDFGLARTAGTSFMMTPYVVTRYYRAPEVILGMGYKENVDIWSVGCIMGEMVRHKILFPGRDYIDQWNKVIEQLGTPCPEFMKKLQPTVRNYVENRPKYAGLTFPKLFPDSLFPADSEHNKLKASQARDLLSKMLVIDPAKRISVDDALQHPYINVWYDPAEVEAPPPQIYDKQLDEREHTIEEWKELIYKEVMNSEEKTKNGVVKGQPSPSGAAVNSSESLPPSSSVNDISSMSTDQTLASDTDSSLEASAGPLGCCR
For test [13], the target named is Calcium/calmodulin-dependent protein kinase type 1 (Homo sapiens) (UniProt Q14012). As to the kind of experiment: Inhibition of CaMK1 at 0.1 uM; values are per cent of control.
Calcium/calmodulin-dependent protein kinase type 1 (Homo sapiens), sequence (Q14012 whole entry, looked up, the tested form may be a part): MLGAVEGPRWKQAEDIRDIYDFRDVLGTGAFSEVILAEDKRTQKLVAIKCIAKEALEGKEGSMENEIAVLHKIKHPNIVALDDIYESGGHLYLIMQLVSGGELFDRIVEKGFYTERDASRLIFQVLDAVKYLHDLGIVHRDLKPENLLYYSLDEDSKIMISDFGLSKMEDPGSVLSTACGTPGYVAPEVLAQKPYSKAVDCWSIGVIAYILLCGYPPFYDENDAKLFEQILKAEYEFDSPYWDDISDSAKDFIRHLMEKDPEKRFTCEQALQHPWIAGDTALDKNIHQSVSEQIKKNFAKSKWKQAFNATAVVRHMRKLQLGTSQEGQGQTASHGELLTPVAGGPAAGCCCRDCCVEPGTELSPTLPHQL
For test [14], the target named is LIM domain kinase 1 (Homo sapiens) (UniProt P53667). Briefly: Inhibition of LIMK1 at 0.1 uM; values are per cent of control.
LIM domain kinase 1 (Homo sapiens), sequence (P53667 whole entry, looked up, the tested form may be a part): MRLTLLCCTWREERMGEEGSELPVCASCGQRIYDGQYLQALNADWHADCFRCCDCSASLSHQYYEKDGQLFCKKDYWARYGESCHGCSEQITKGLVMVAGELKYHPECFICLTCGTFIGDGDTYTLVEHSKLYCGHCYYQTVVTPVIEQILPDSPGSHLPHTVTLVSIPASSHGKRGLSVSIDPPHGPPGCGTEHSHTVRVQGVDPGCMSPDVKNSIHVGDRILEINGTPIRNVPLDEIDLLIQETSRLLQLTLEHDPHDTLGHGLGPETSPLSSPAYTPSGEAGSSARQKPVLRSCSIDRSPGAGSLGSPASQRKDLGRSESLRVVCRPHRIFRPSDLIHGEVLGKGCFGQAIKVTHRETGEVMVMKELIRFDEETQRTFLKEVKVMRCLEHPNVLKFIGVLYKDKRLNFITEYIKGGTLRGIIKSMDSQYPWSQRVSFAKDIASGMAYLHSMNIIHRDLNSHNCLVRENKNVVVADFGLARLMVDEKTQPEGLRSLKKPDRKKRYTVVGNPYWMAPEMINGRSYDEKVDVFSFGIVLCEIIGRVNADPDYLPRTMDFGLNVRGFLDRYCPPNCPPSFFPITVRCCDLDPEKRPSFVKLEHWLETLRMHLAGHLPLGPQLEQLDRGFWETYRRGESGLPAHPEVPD
Test [15] can be described thus: Inhibition of ROCK1 at 0.1 uM; values are per cent of control.
Test [16] deals with T3, Aurora kinase A (Homo sapiens) (UniProt O14965).
T3 sequence (whole entry): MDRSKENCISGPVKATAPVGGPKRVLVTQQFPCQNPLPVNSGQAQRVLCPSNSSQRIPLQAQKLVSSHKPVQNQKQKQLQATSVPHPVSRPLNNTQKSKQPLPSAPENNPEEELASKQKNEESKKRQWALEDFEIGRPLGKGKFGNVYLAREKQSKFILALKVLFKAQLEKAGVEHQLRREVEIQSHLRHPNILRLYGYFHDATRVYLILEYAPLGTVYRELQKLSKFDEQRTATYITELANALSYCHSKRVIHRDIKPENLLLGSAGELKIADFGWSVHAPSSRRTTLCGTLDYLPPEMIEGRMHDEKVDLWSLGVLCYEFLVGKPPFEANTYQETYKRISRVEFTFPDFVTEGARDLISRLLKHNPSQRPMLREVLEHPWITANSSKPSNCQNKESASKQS
As to the kind of experiment: Inhibition of aurora-A at 0.1 uM; values are per cent of control.

Test [17] addresses Protein kinase C theta type (Homo sapiens) (UniProt Q04759). Briefly: Inhibition of PKCtheta at 0.1 uM; values are per cent of control.
The target of test [18] is Cyclin-dependent kinase 7/ cyclin H (Homo sapiens) (UniProt P51946+P50613). Briefly: Inhibition of CDK7/cyclin H/MAT1 at 0.1 uM; values are per cent of control.

Each structure is given as a SMILES string. pIC50: −log10 of the molar value.

As usually defined, the pIC50 is the IC50 on a negative log10 scale, so that one unit is a factor of ten. For orientation: inhibition means how much of the control response was suppressed. In the case of `Cc1ccc2cc(-c3n[nH]c4ccc(NC5CCNC5)cc34)[nH]c2c1` (stereo unspecified), the negative logarithm of the IC50 (pIC50) in test [1] was 7.96. This compound showed an inhibition in test [2] of 99%. The residual activity in [3] stood at 108%; in test [4], 103%; in test [5] it was 0%; in [6], 27%; in test [7], 90%; in [8], 50%. Moreover, the residual activity in [9] came to 6%; in test [10], 0%; in test [11], 18%; in test [12], 73%; in [13], 36%; in test [14], 37%. In addition, the residual activity in test [15] was 47%; in test [16], 5%; in [17], 74%; in test [18], 42%.
On to `Cc1ccc2cc(-c3n[nH]c4ccc(NC5CCN(Cc6ccccc6)CC5)cc34)[nH]c2c1`, for which the pIC50 in test [1] was 7.64. This compound gave an inhibition in [2] of 97%. The residual activity in test [3] amounted to 100%; in test [4], 93%; in [5] it was 2%; in test [6] it was 61%; in [7], 90%; in [8] it was 22%. For the same compound, the residual activity was determined as 10% in test [9]; 21% in [10]; 90% in [11]; 98% in test [12]; 89% in test [13]; 98% in test [14]. Moreover, the residual activity in test [15] came out at 92%; in [16], 34%; in [17], 45%; in [18], 94%.

The record behind these values is ChEMBL document CHEMBL1681705, “Optimisation of ITK inhibitors through successive iterative design cycles” (Bioorg Med Chem Lett, 2011).
